Assay results from patent US20240150293A1, “SPIROCYCLOHEXANE DERIVATIVES, PHARMACEUTICAL COMPOSITIONS CONTAINING THEM AND THEIR USES AS ANTI-APOPTOTIC INHIBITORS” (LES LABORATOIRES SERVIER, priority 2021, published 2024).
pKi: −log10 of the molar value.

These molecules were tested against Mcl-1 protein (UniProtKB Q07820) (Homo sapiens (Human), UniProt Q07820) (assay: Inhibition of Mcl-1 by the fluorescence polarisation assay (Example A, Method A)). Settings: fluorescence polarization assay.
Type: binding
Method in brief: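 Protein (5 nM) and fluorescein-tagged peptide tracer (1 nM) incubated with 11-point compound series for 2 h at room temperature in HEPES/NaCl/Tween 20 buffer, pH 7.4, 5% DMSO. Displacement read as decrease in polarisation; IC50 fitted by 4-parameter logistic, converted to Ki (cKi or eKi).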

Sequence of Mcl-1 protein (Q07820 whole entry): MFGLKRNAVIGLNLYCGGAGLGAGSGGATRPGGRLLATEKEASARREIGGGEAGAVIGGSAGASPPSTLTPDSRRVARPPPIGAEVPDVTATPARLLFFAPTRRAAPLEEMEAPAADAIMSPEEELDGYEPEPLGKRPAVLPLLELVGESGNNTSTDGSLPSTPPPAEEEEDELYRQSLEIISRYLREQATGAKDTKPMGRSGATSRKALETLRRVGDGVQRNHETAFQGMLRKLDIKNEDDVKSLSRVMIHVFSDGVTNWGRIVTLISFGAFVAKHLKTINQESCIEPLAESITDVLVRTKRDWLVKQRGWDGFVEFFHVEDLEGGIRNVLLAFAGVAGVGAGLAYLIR

pKi | Structure (SMILES)
5.14 | O=C(O)[C@]1(Nc2cccc(Cl)c2)CC[C@]2(CC1)C(=C1CCCC1)Cc1ccccc12 [Example 93, (1r,4r)-4-(3-chloroanilino)-2′-cyclopentylidene-2′,3′-dihydrospiro[cyclohexane-1,1′-indene]-4-carboxylic acid]
3.89 | COc1ccc2c(c1)[C@]1(CC[C@](Nc3cccc(Br)c3)(C(=O)O)CC1)C1(CCCC1)C2 [Example 94, (1s,4s)-4-(3-bromoanilino)-6′-methoxy-3′H-dispiro[cyclohexane-1,1′-indene-2′,1″-cyclopentane]-4-carboxylic acid]
5.92 | COc1ccc2c(c1)[C@]1(CC[C@@](Nc3cccc(Br)c3)(C(=O)O)CC1)C1(CCCC1)C2 [Example 95, (1r,4r)-4-(3-bromoanilino)-6′-methoxy-3′H-dispiro[cyclohexane-1,1′-indene-2′,1″-cyclopentane]-4-carboxylic acid]
5.35 | O=C(O)[C@]1(Nc2cccc(Cl)c2)CC[C@]2(CC1)C(C1CCC1)=Cc1ccccc12 [Example 96, (1r,4r)-4-(3-chloroanilino)-2′-cyclobutylspiro[cyclohexane-1,1′-indene]-4-carboxylic acid]
6.24 | O=C(O)[C@]1(Nc2cccc(Cl)c2)CC[C@]2(CC1)C(C1CC(OCc3ccccc3)C1)=Cc1ccccc12 (stereo partly shown) [Example 97, (1r,4r)-2′-[3-(benzyloxy)cyclobutyl]-4-(3-chloroanilino)spiro[cyclohexane-1,1′-indene]-4-carboxylic acid]
4.98 | O=C(O)[C@]1(Nc2cccc(Cl)c2)CC[C@]2(CC1)C(C1CN(Cc3ccncc3)C1)=Cc1ccccc12 [Example 98, (1r,4r)-4-(3-chloroanilino)-2′-{1-[(pyridin-4-yl)methyl]azetidin-3-yl}spiro[cyclohexane-1,1′-indene]-4-carboxylic acid]
5.54 | O=C(O)[C@]1(Nc2cccc(Cl)c2)CC[C@]2(CC1)C(C1CN(Cc3c(F)ccc(F)c3F)C1)=Cc1ccccc12 [Example 99, (1r,4r)-4-(3-chloroanilino)-2′-{1-[(2,3,6-trifluorophenyl)methyl]azetidin-3-yl}spiro[cyclohexane-1,1′-indene]-4-carboxylic acid]
5.58 | O=C(O)[C@]1(Nc2cccc(Cl)c2)CC[C@@]2(CC1)c1ccccc1C[C@H]2C1CCC1 [Example 100, (1r,2′S,4S)-4-(3-chloroanilino)-2′-cyclobutyl-2′,3′-dihydrospiro[cyclohexane-1,1′-indene]-4-carboxylic acid]
4.57 | O=C(O)[C@]1(Nc2cccc(Cl)c2)CC[C@@]2(CC1)c1ccccc1C[C@@H]2C1CCC1 [Example 101, (1r,2′R,4R)-4-(3-chloroanilino)-2′-cyclobutyl-2′,3′-dihydrospiro[cyclohexane-1,1′-indene]-4-carboxylic acid]
4.97 | O=C(O)[C@]1(Nc2cccc(Cl)c2)CC[C@]2(CC1)C(C1CN(CC(F)(F)F)C1)=Cc1ccccc12 [Example 102, (1r,4r)-4-(3-chloroanilino)-2′-[1-(2,2,2-trifluoroethyl)azetidin-3-yl]spiro[cyclohexane-1,1′-indene]-4-carboxylic acid]
5.24 | O=C(O)C1(Nc2cccc(Br)c2)CCC2(CC1)c1ccccc1-c1ccccc12 [Example 117, 4-[(3-bromophenyl)amino]spiro[cyclohexane-1,9′-fluorene]-4-carboxylic acid]
5.40 | O=C(O)C1(Nc2cccc(Cl)c2)CCC2(CC1)c1ccccc1-c1ccccc12 [Example 118, 4-(3-chloroanilino)spiro[cyclohexane-1,9′-fluorene]-4-carboxylic acid]
6.08 | O=C(O)[C@]1(Nc2cccc(Br)c2)CC[C@@]2(CCCc3ccccc32)CC1 [Example 119, (1r,4s)-4-(3-bromoanilino)-3′,4′-dihydro-2′H-spiro[cyclohexane-1,1′-naphthalene]-4-carboxylic acid]
4.71 | O=C(O)[C@]1(Nc2cc(Cl)cc(Cl)c2)CC[C@@]2(CCCc3ccccc32)CC1 [Example 120, (1r,4s)-4-[(3,5-dichlorophenyl)amino]-3′,4′-dihydro-2′H-spiro[cyclohexane-1,1′-naphthalene]-4-carboxylic acid]
5.81 | C=CCOC1Cc2ccccc2[C@]12CC[C@@](Nc1cccc(Br)c1)(C(=O)O)CC2 (stereo partly shown) [Example 121, (1s,4s)-4-(3-bromoanilino)-2′-[(prop-2-en-1-yl)oxy]-2′,3′-dihydrospiro[cyclohexane-1,1′-indene]-4-carboxylic acid]
5.42 | C=CCOC1Cc2ccccc2[C@]12CC[C@@](Nc1cccc(Cl)c1)(C(=O)O)CC2 (stereo partly shown) [Example 122, (1s,4s)-4-(3-chloroanilino)-2′-[(prop-2-en-1-yl)oxy]-2′,3′-dihydrospiro[cyclohexane-1,1′-indene]-4-carboxylic acid]
5.19 | Cc1ccc(C)c2c1CC(C)C21CCC(Nc2cccc(Br)c2)(C(=O)O)CC1 (stereo not shown) [Example 123, 4-(3-bromoanilino)-2′,4′,7′-trimethyl-2′,3′-dihydrospiro[cyclohexane-1,1′-indene]-4-carboxylic acid]
5.89 | CC1=Cc2cc(Cl)ccc2C12CCC(Nc1cccc(Br)c1)(C(=O)O)CC2 (stereo not shown) [Example 124, 4-(3-bromoanilino)-5′-chloro-2′-methylspiro[cyclohexane-1,1′-indene]-4-carboxylic acid]
5.12 | CC1=Cc2cccc(C)c2C12CCC(Nc1cccc(Br)c1)(C(=O)O)CC2 (stereo not shown) [Example 125, 4-(3-bromoanilino)-2′,7′-dimethylspiro[cyclohexane-1,1′-indene]-4-carboxylic acid]
5.04 | COc1ccc2c(c1)[C@]1(CC[C@](Nc3cccc(Br)c3)(C(=O)O)CC1)C(Cc1ccccc1)C2 (stereo partly shown) [Example 126, (1s,4s)-2′-benzyl-4-(3-bromoanilino)-6′-methoxy-2′,3′-dihydrospiro[cyclohexane-1,1′-indene]-4-carboxylic acid]
5.55 | COc1ccc2c(c1)[C@]1(CC[C@@](Nc3cccc(Br)c3)(C(=O)O)CC1)C(Cc1ccccc1)C2 (stereo partly shown) [Example 127, (1r,4r)-2′-benzyl-4-(3-bromoanilino)-6′-methoxy-2′,3′-dihydrospiro[cyclohexane-1,1′-indene]-4-carboxylic acid]
4.34 | COc1ccc2c(c1)[C@]1(CC[C@](Nc3cccc(Br)c3)(C(=O)O)CC1)C(C)(C)C2 [Example 128, (1s,4s)-4-(3-bromoanilino)-6′-methoxy-2′,2′-dimethyl-2′,3′-dihydrospiro[cyclohexane-1,1′-indene]-4-carboxylic acid]
7.09 | COc1ccc2c(c1)[C@]1(CC[C@@](Nc3cccc(Cl)c3)(C(=O)O)CC1)C(Br)=C2 [Example 129, (1s,4s)-2′-bromo-4-(3-chloroanilino)-6′-methoxyspiro[cyclohexane-1,1′-indene]-4-carboxylic acid]
7.03 | COc1ccc2c(c1)C=C(Br)[C@]21CC[C@](Nc2cccc(Cl)c2)(C(=O)O)CC1 [Example 130, (1s,4s)-2′-bromo-4-(3-chloroanilino)-5′-methoxyspiro[cyclohexane-1,1′-indene]-4-carboxylic acid]
6.82 | CC(=O)c1ccc2c(c1)[C@]1(CC[C@@](Nc3cccc(Cl)c3)(C(=O)O)CC1)C(Br)=C2 [Example 132, (1s,4s)-6′-acetyl-2′-bromo-4-(3-chloroanilino)spiro[cyclohexane-1,1′-indene]-4-carboxylic acid]
